# Assay results reported in article PMC7994892, “The M. tuberculosis Rv1523 Methyltransferase Promotes Drug Resistance Through Methylation-Mediated Cell Wall Remodeling and Modulates Macrophages Immune Responses” (Frontiers in Cellular and Infection Microbiology, 2021).
# Target: Rv1523 MTase (Mycobacterium tuberculosis, UniProt Q50584)
# Sequence (Q50584 entry or part of it): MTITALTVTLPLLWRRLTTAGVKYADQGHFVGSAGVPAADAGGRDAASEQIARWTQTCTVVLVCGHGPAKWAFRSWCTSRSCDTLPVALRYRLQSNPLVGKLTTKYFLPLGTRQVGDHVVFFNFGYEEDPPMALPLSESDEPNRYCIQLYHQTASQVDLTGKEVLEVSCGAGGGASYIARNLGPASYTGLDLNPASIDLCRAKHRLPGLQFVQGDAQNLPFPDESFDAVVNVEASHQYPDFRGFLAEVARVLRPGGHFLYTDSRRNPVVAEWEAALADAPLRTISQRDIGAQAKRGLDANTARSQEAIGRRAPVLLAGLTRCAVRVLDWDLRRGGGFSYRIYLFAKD
structure (smiles),measurement,value
C[S+](CC[C@H](N)C(=O)O)C[C@H]1O[C@@H](n2cnc3c(N)ncnc32)[C@H](O)[C@@H]1O (stereo partly shown) [S-adenosyl methionine],"coupled colorimetric SAM methyltransferase assay, 510 nm",Rv1523 MTase was able to transfer methyl group from SAM to the cell wall component
